Results taken from EP2746253A1, “Novel compounds with skin lightening properties” (Unilever PLC, priority 2012, dated 2014).

Columns and labels:
[1] = system: B16 mouse melanoma cells; assay: Inhibition of pigment (melanin) production in B16 mouse melanoma cells; format: cell-based; settings: 72 h, 3 days incubation, average of 4 wells, read-out: % of melanin inhibition in B16 mouse melanoma cells assay compared to control, normalised to protein levels
Excerpt: B16 mouse melanoma cells are widely available for example by purchase from the American Type Culture Collection (ATCC) and are routinely used by those skilled in the art to assay pigment production. The cells make and secrete melanin, a dark pigment, into the medium as the cells approach confluence. Methods for general cell culture may be easily accessed in text books and on-line (eg General Techniques of Cell Culture; M.A. Harrison and I.F. Rae Authors; Cambridge University Press ISBN 052157496X)
B16 mouse melanoma cells were maintained in cell culture and used for tests in antibiotic free Lonza Biowhittaker (BE12-662F) media (50ml fetal bovine serum and 5 ml I-glutamine (Sigma G7513) per 500 ml bottle).
The cells were maintained and grown at 37°C in an atmosphere of 5 % CO2. Trypsin/ethylene diamine tetraacetic acid (EDTA; Sigma T3924) and Dulbeccos Phosphate Buffered Saline (DPBS; Sigma D8537) were used to passage the cells as they approached ≥80 % confluence, diluting the cells by one tenth for maintenance culture.
For the pigment reduction assays, 48 well plates were seeded with 2.5 x 10^4 cells per well in phenol red-free, antibiotic-free medium (Sigma D1145) supplemented with foetal bovine serum and glutamine. Care was taken to make sure less adherent cells were not lost during the seeding process.
The plates were incubated overnight at 37°C/5 % CO2 atmosphere. The media was removed from the plates one-by-one and fresh media containing the test compound or control additions was added to each well. Compounds were prepared as stock solutions at 1000 fold higher concentration than that used for assay in dimethylsulphoxide (DMSO). Control media additions included 0.1 % DMSO, media alone and positive control(s) known to inhibit pigment production such as ketoconazole or 4-ethylresorcinol. The cells were incubated at 37°C/5 % CO2 atmosphere for a further 3 days. Cultures were assessed for melanin secretion into the medium and, as controls for toxicity of the added ingredients, for protein level and metabolic activity. A reduction in metabolic activity or protein levels is indicative of cell toxicity. The most desirable compounds therefore in the assay are those that show melanin production inhibition without loss of metabolic function or reduction in protein levels.
Media was removed from the cell plates and put into storage plates. The plates were sealed until assayed later in the day. Melanin was measured by determining optical density at 450 nm and making a comparison against melanin standards (Sigma M8631) made up anew on each day of testing. The standards used were 1000 µg/ml; 500 µg/ml; 250 µg/ml; 125 µg/ml; 62.5 µg/ml; 31.25 µg/ml; and 15.625 µg/ml.
Without delay, 100 µl of RIPA buffer (Sigma R0278) with protease inhibitor (Sigma S8830- use as per Sigma instructions) was added to the wells and the plates frozen at -20°C until the protein assessment was carried out. For example Pierce BCA Protein Assay (Thermo Scientific # 23225) can be used as per manufacturer's instructions with 10 µl of sample for each replicate.
Control and test melanin values were calculated as the average of results from 4 wells, corrected for protein levels in the cultures. The percent reduction in melanin production was calculated for each compound concentration, setting the melanin production of control incubations (vehicle alone) at 100%. Compound concentrations causing > 20% loss of WST activity are considered toxic and not considered to be effective melanin inhibitors. A compound causing > 10% reduction of melanin production into the medium was considered to be an inhibitor. Table 1: B16 mouse melanoma cells assay results for compounds of the first aspect of the invention

[2] = system: Melanoderms™; assay: Pigment production by Living Skin Equivalents (Melanoderms); format: cell-based; settings: Homo sapiens, 336 h, 14 days, normalized to protein levels, read-out: Inhibition of melanin production (%) in Melanoderms™ compared to control
Excerpt: So called reconstructed pigmented 'skin' cultures containing keratinocytes and melanocytes are commercially available and for example can be purchased from MatTek Corp, 200, Homer Avenue, Ashland, MA, USA, under the trade name Melanoderm™. Melanoderms™ (catalogue reference MEL-300) containing melanocytes from […] donor skin were maintained in EPI-100-NMM113 media following the manufacturer's instructions and using standard methods for the maintenance of cultured mammalian cells under aseptic conditions. The Melanoderm™ cultures were treated with test agents for a total of 14 days. During the 14 day culture period the melanocytes in the Melanoderm™ cultures synthesise melanin in specialised vesicular structures called melanosomes. The pigmented melanosomes are transferred to the adjacent keratinocytes and the transferred-melanosomes tend to accumulate over the nucleus of the keratinocytes. This process is the same as occurs in skin in vivo and accordingly the Melanoderm™ culture is considered to be a very good test 'skin tissue' to mimic the effect of the skin pigmentation process in vivo. A compound that leads to a reduction in melanin production in the Melanoderm™ culture over 14 days by 10 % or more is considered to have a positive pigment reducing effect. It is important that the reduction in pigment occurs without substantive loss of cell viability such that the inhibitory effect of the test compound is due to its biological function rather than due to cell toxicity.
Culture media changes and re-dosing of compounds at selected concentrations took place every 2 or 3 days during the test period. Melanoderm™ cultures were also treated with control materials including the vehicle (dimethylsulphoxide; DMSO) used to dissolve the test material and a positive control material known to lead to the synthesis of reduced amounts of melanin in the cultures. Ketoconazole and/or 4-ethylresorcinol were used as positive controls. After 14 days culture, transmitted-light microscopy images were captured for every culture using a Leica DM IL microscope at x20 magnification.
The cell viability of the cultures was assessed using the so called WST-1 (Water Soluble Tetrazolium Salt -1) assay purchased from Roche Applied Science and following the manufacturer's instructions. The stable tetrazolium salt WST-1 is cleaved to a soluble formazan dye by a complex cellular mechanism that occurs primarily at the cell surface. This bioreduction is largely dependent on the glycolytic production of NADPH in viable cells. Therefore, the amount of soluble formazan dye formed in the culture medium directly correlates to the number of metabolically active cells in the culture. Cultures were incubated with WST-1 in the medium for 1 hour and production of formazan measured at 450 nm using a spectrophotometer plate reader, eg a BMG Labtech FLUOstar plate reader. Cultures were considered 'viable' if they generated greater than 80 % of the control value of formazan product. Subsequently the culture was washed briefly in phosphate buffer solution (PBS) and total melanin and protein extracted together from each culture using 250 µl Solvable (trademark, Perkin Elmer product 6NE9100) reagent at 60°C overnight as recommended by the manufacturer. The total protein content using a sample of the extracts was determined using the so called BCA (bicinchoninic acid) assay. The BCA assay may be purchased from Pierce Chemical Company and conducted following the manufacturer's instructions. Melanin was determined by measuring the absorbance at 485 nm, for example using a BMG Labtech FLUOstar plate reader. The amount of melanin extracted from each culture was determined by reference to a standard synthetic-melanin curve (Sigma Aldrich Chemical Co; catalogue reference M8631).
Melanin levels in each culture were expressed as values normalised to the amount of protein in the cultures and compared to control vehicle treated cultures. […]

SMILES	inhibition at 1 µM [1]	inhibition at 5 µM [1]	inhibition at 5 µM [2]	inhibition at 10 µM [2]
Cc1ccc2[nH]c3c(c2c1)CCC/C3=N/N=C(\N)NCc1ccc(F)cc1 [NC-0536, (E)-1-amino-N-(4-fluorobenzyl)-1-{(2Z)-[6-methyl-2,3,4,9-tetrahydro-1H-carbazol-1-ylidene]hydrazinylidene}methanaminium iodide]	24%	8%	–	–
N/C(=N\N=C\c1csc2ccccc12)NCc1ccc(Cl)c(Cl)c1 [NC-0515, (E)-1-amino-1-[(2E)-(1-benzothiophen-3-ylmethylidene)hydrazinylidene]-N-(3,4-dichlorobenzyl)methanaminium iodide]	0%	54%	–	–
COC(=O)c1ccc(CN/C(N)=N/N=C/c2cc3ccccc3o2)cc1 [NC-0521, (E)-1-amino-1-[(2E)-(1-benzofuran-2-ylmethylidene)hydrazinylidene]-N-[4-(methoxycarbonyl)benzyl]methanaminium iodide]	46%	64%	35%	–
COc1ccc(CN/C(N)=N/N=C/c2cc3ccccc3o2)cc1 [NC-0531, (E)-1-amino-1-[(2E)-(1-benzofuran-2-ylmethylidene)hydrazinylidene]-N-(4-methoxybenzyl)methanaminium iodide]	39%	39%	35%	40%
N/C(=N\N=C\c1ccc(-c2ccncc2)cc1)NCc1ccc(O)cc1 [NC-0498, (E)-1-amino-N-(4-hydroxybenzyl)-1-{(2E)-[4-(pyridin-4-yl)benzylidene]hydrazinylidene}methanaminium iodide]	0%	33%	–	53%
N/C(=N\N=C\c1cc2ccccc2o1)NCc1ccccc1 [NC-0519, (E)-1-amino-1-[(2E)-(1-benzofuran-2-ylmethylidene)hydrazinylidene]-N-benzylmethanaminium iodide]	71%	71%	40%	47%
COC(=O)c1ccc(CN/C(N)=N/N=C/c2ccc3ccccc3n2)cc1 [NC-0511, (E)-1-amino-N-[4-(methoxycarbonyl)benzyl]-1-[(2E)-(quinolin-2-ylmethylidene)hydrazinylidene]methanaminium iodide]	54%	100%	27%	19%
Cc1ccc2[nH]c3c(c2c1)CCC/C3=N/N=C(\N)NCc1c(Cl)cccc1Cl [NC-0537, (E)-1-amino-N-(2,6-dichlorobenzyl)-1-{(2Z)-[6-methyl-2,3,4,9-tetrahydro-1H-carbazol-1-ylidene]hydrazinylidene}methanaminium iodide]	51%	37%	–	–
COC(=O)c1cccc(CN/C(N)=N/N=C/c2csc3ccccc23)c1 [NC-0525, (E)-1-amino-1-[(2E)-(1-benzothiophen-3-ylmethylidene)hydrazinylidene]-N-[3-(methoxycarbonyl)benzyl]methanaminium iodide]	18%	100%	–	–
N/C(=N\N=C\c1csc2ccccc12)NCc1ccc(F)cc1 [NC-0517, (E)-1-amino-1-[(2E)-(1-benzothiophen-3-ylmethylidene)hydrazinylidene]-N-(4-fluorobenzyl)methanaminium iodide]	32%	35%	4%	20%
COC(=O)c1ccc(CN/C(N)=N/N=C/c2cc3ccccc3s2)cc1 [NC-0522, (E)-1-amino-1-[(2E)-(1-benzothiophen-2-ylmethylidene)hydrazinylidene]-N-[4-(methoxycarbonyl)benzyl]methanaminium iodide]	59%	53%	34%	31%
COC(=O)c1ccc(CN/C(N)=N/N=C/c2csc3ccccc23)cc1 [NC-0510, (E)-1-amino-1-[(2E)-(1-benzothiophen-3-ylmethylidene)hydrazinylidene]-N-[4-(methoxycarbonyl)benzyl]methanaminium iodide]	17%	29%	18%	19%
COc1ccc(CN/C(N)=N/N=C/c2csc3ccccc23)cc1 [NC-0528, (E)-1-amino-1-[(2E)-(1-benzothiophen-3-ylmethylidene)hydrazinylidene]-N-(4-methoxybenzyl)methanaminium iodide]	3%	73%	–	–
